Measured values: publication PMC10803328 (Scientific Reports, 2024)
Entries after “also recorded” stand apart in the source; their conditions may differ. Read-outs that look alike come from different tables or passages of the source.

Tests used:
α4β2 nAChR = biological target: α4β2 nAChR; parameters: method as in PMID 30872534, PMID 24556591; settings: in vitro binding assay, literature; cited from earlier work
α7-nAChR = biological target: α7-nAChR; parameters: method as in PMID 30872534, PMID 24556591; settings: cited from earlier work; for Ki: in vitro binding assay, literature
PSAM^4-GlyR [1] = tested on: PSAM^4-GlyR; parameters: method as in PMID 30872534; settings: rhesus monkey, globus pallidus internal region (GPi), PSAM^4-GlyR activated by the ligand; cited from earlier work
P-gp = settings: cited from earlier work
PSAM^4-GlyR [2] = biological target: T1, PSAM^4-GlyR (Homo sapiens, UniProt P23415+P36544, L131G/Q139L/Y217F); test: Competitive binding assay with [^3H]ASEM on membranes of HEK-293 cells transduced with PSAM^4-GlyR; parameters: expressed in transfected cells; host or cells: HEK-293 (membrane fraction)
Experimental: HEK-293 cells were transduced with plasmids (5 μg per dish) of encoding PSAM^4-GlyR (in pcDNA3.1) or a control vector (GFP) and harvested 48 h after transduction. Cells were suspended in Tris–HCl buffer (50 mM, pH 7.4) supplemented with a protease inhibitor cocktail (1:100, Sigma-Aldrich; St Louis, MO). HEK-293 cells were disrupted with a Polytron homogenizer (Kinematica; Basel, Switzerland). Homogenates were centrifuged at 48,000g (50 min, 4 °C) and washed twice in the same conditions to isolate the membrane fraction. Protein was quantified by the bicinchoninic acid method (Pierce, ThermoFisher Scientific, MA). […] In all cases, free and membrane-bound radioligand were separated by rapid filtration of 500-μL aliquots in a 96-well plate harvester (Brandel; Gaithersburg, MD) and washed with ice-cold Tris–HCl buffer (2 mL). Microscint-20 scintillation liquid (65 μL per well, PerkinElmer; Boston, MA) was added to the filter plates. Plates were incubated overnight at room temperature and radioactivity counts were determined in a MicroBeta2 plate counter (PerkinElmer) with an efficiency of 41%. One-site competition curves were fitted using Prism 7 (GraphPad Software; La Jolla, CA). Ki values were calculated using the Cheng-Prusoff equation.

[3] = Measurement of apparent pKa by radiotracer partition; type: physicochemical; settings: cyclohexane / sodium phosphate buffer partition; cyclohexane / phosphate buffers pH 3.0-10.5, n = 3
Experimental: The method was similar to that followed previously for other radiotracers. Sodium phosphate buffers (0.15 M), with pH values of 3.0, 3.5, 4.0, 4.5, 5.0, 5.5, 6.0, 6.5, 7.0, 7.4, 8.0, 8.5, 9.0, 9.5, 10.0, and 10.5, were prepared from 0.15 M NaH2PO4 and 0.1 M Na2HPO4 and distributed (1 mL per tube) as the aqueous phase. [^11C]uPSEM, formulated in ethanol (20 µL, 2.4 ± 0.3 MBq, n = 48), was added to each tube. Triple sets of such tubes were prepared simultaneously. Cyclohexane (1.0 mL) was added to each of the tubes containing the buffer and the [^11C]uPSEM and then vigorously vortexed for 1 min. The tubes were then centrifuged for one minute. The two phases in each tube were separated, sampled (50 µL aqueous, 200 µL organic) and counted in a γ-counter. Distribution coefficients at each pH were calculated by dividing the counts detected in the organic phase by the total activity present in both phases. These distribution coefficients were plotted versus pH and nonlinear regression analysis applied with GraphPad Prism version 4.03 for windows (GraphPad Software; San Diego, CA) using “One site competition” curve-fitting. […] The radiochemical purity of the [^11C]uPSEM preparation was 98.8% as determined by radio-HPLC on an X-Terra […] column (10 µm, 7.8 × 300 mm; Waters Corp.) and a mobile phase of MeOH:H2O:Et3N (55:45:0.1, by vol) at 5.0 mL/min.

PSAM^4-GlyR [4] = tested on: PSAM^4-GlyR; parameters: method as in PMID 30872534; settings: area CA1 of mouse hippocampal neurons, acting on PSAM^4-GlyR; cited from earlier work
PSAM^4-GlyR [5] = tested on: PSAM^4-GlyR; parameters: method as in PMID 30872534; settings: PSAM^4-GlyR transduced mouse; cited from earlier work
PSAM^4-GlyR [6] = biological target: T1, PSAM^4-GlyR; parameters: expressed in transfected cells; method as in PMID 30872534, PMID 24556591, PMID 36279419; settings: read-out: PSAM^4-GlyR (Ki); in vitro binding assay, literature; cited from earlier work

T1 sequence (P36544+P23415 fused P36544:L131G/P36544:Q139L/P36544:Y217F): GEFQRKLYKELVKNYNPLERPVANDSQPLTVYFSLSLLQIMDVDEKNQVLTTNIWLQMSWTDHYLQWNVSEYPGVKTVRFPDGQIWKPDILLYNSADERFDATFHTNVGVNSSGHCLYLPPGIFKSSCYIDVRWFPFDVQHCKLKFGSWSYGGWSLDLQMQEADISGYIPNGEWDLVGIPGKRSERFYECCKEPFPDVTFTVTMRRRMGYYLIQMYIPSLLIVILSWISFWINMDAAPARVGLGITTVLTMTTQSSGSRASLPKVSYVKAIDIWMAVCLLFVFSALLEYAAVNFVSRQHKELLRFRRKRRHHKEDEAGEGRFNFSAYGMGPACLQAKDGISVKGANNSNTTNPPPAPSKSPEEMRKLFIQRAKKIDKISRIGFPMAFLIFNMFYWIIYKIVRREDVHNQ

Row | Structure (SMILES) | Ki (α4β2 nAChR) [nM] | Ki (α7-nAChR) [nM] | effect on neuronal firing rate (PSAM^4-GlyR [1]) | P-gp substrate in vitro (P-gp) | Ki (PSAM^4-GlyR [2]) [nM] | affinity to α7-nAChRs (in words) (α7-nAChR) | pKa [3] | neuronal silencing (PSAM^4-GlyR [4]) | blocking of [^18F]ASEM binding in brain (PSAM^4-GlyR [5]) | Ki (PSAM^4-GlyR [6]) [nM]
1 | O=S1(=O)c2cc(N3CCN4CCC3CC4)ccc2-c2cccc(F)c21 [ASEM] | 4000 | 0.3 |  |  |  |  |  |  |  | 
2 | c1cnc2cc3c(cc2n1)[C@@H]1CNC[C@H]3C1 [Varenicline, varenicline] |  |  | reduces neuronal firing rate |  |  |  |  |  |  | 
3 | Cn1c(=O)cnc2cc3c(cc21)C1CNCC3C1 (centres unmarked) [uPSEM792, 1-Methyl-1,6,7,8,9,10-hexahydro-2H-6,10-methanoazepino[4,5-g]quinoxalin-2-one] |  | 8000 |  | not a P-gp substrate in vitro; also recorded: not to be a P-gp substrate | 2.62 | low affinity | 9.92 ± 0.05 | Neuronal silencing has been shown | able to block [^18F]ASEM binding | 0.7
